≈ marks a conversion by molar mass, not a printed value. Read-outs that look alike come from different tables or passages of the source. Positions of bridges follow the written chain, without caps; N, C: chain ends. Non-standard residues stand in square brackets, D forms with d. Residues, ends and D or L forms follow the SMILES beside them. Dab = NCC[C@H](N)C(=O)O
Experiments:
P. aeruginosa PAO750 = conditions: P. aeruginosa PAO750, efflux-deficient strain that lacks five pumps and OpmH
From the text: (§1) To our curiosity, we explored whether efflux can affect the activity of polymyxins. It is widely accepted that polymyxins disrupt Gram-negative bacterial membranes that result to intracellular component leakage and bacterial cell death. However, for this to occur requires the agent to reach the periplasmic space to interact and disrupt the inner membrane. Active efflux may potentially expel polymyxins out of the periplasm, effectively reducing its periplasmic and intracellular concentrations. To study the effect of efflux on polymyxins in Gram-negative pathogens, we used P. aeruginosa as they inherently overexpress efflux systems such as MexAB-OprM, MexCD-OprJ and MexXY-OprM. Moreover, antibiotic substrates for these efflux systems are mostly characterized. We evaluated and compared the activity of the dilipid polymyxins, colistin and PMBN against wild-type PAO1 and two efflux-deficient P. aeruginosa isogenic mutants (Table 5). The strain PAO200 lacks the MexAB-OprM efflux system while strain PAO750 lacks five clinically-relevant pumps (MexAB-OprM, MexCD-OprJ, MexEF-OprN, MexJK and MexXY) and outer membrane protein OpmH.
(§2) Bacterial strains were either obtained from the American Type Culture Collection (ATCC), Canadian National Intensive Care Unit (CAN-ICU) surveillance study or the Canadian Ward Surveillance (CANWARD) study. Strains from both CAN-ICU and CANWARD are isolates recovered from patients diagnosed with a presumed infectious disease that were admitted in a participating medical center across Canada. Efflux-deficient strain PAO200 (lacking MexAB-OprM efflux system) and PA0750 (lacking MexAB-OprM, MexCD-OprJ, MexEF-OprN, MexJK and MexXY efflux systems, and the outer membrane protein OpmH) were kindly gifted by Dr. Ayush Kumar (University of Manitoba).
(§3) The in vitro antibacterial activity of the compounds studied were assessed by broth microdilution susceptibility testing following CLSI guidelines. Bacterial cultures were grown overnight prior to the assay. The overnight grown cultures were diluted in saline to 0.5 McFarland turbidity, followed by 1:50 dilution in Mueller-Hinton broth (MHB) for inoculation to a final concentration of approximately 5×10^5 colony forming units/mL. Testing was performed on 96-well plates where the tested compounds were 2-fold serially diluted in MHB and incubated with equal volumes of bacterial inoculum at 37° C. for 18 h. […] Wells containing MHB with or without bacterial cells were used as positive or negative control, respectively.

P. aeruginosa PAO200 = system: P. aeruginosa PAO200
From the text: as §1, §2, §3

P. aeruginosa PAO1 [1] = system: P. aeruginosa PAO1; set-up: MICDrug / MICDrug in combo / MIC of adjuvant in combo: unit not given beside the values
Procedure: The potential of the dilipid polymyxins to serve as an adjuvant in combination with other antibiotics was evaluated against P. aeruginosa PAO1 strain (Tables 4 and 7-12). […] Checkerboard assays were performed with the dilipid polymyxins in combination with twenty-one clinically-used antibiotics. The panel included representatives from the β-lactam, carbapenem, tetracycline, aminoglycoside and fluoroquinolone antibiotic families. Other agents that are used to treat Gram-negative bacterial infection such as fosfomycin, trimethoprim and chloramphenicol were also included. […] Fractional inhibitory concentration (FIC) index was calculated for each combination to measure potential synergism between the two agents. FIC was obtained by dividing the MIC of antibiotic/adjuvant in combination by the MIC of antibiotic/adjuvant alone, while FIC index was calculated by the summation of FIC indices for the antibiotic and adjuvant. An FIC index of ≤0.5, 0.5<x≤4, or >4 denotes for synergistic, additive or antagonistic interaction, respectively. Initially, we assessed the adjuvant properties of PMBN against the panel of 21 antibiotics.
The assay was performed on 96-well plates as previously described. Briefly, the antibiotic at study was 2-fold serially diluted along the x-axis, while the adjuvant was 2-fold serially diluted along the y-axis to create a matrix in which each well consists of a combination of both at different concentrations. Overnight grown bacterial cultures were diluted in saline to 0.5 McFarland turbidity, followed by 1:50 dilution in MHB and inoculation on each well to a final concentration of approximately 5×10^5 colony forming units/mL. Wells containing only MHB with or without bacterial cells were used as positive or negative control, respectively. […] The fractional inhibitory concentration (FIC) of the antibiotic was calculated via dividing the MIC of antibiotic in the presence of adjuvant by the MIC of antibiotic alone. Similarly, the FIC of adjuvant was calculated via dividing the MIC of adjuvant in the presence of antibiotic by the MIC of adjuvant alone. The FIC index was obtained by the summation of both FIC values. The FIC index was then interpreted as synergistic, additive, or antagonistic for values of ≤0.5, 0.5<x<4, or ≥4, respectively.

pig erythrocytes = conditions: red cells of pig, 1 h, 512
P. aeruginosa PAO1 [2] = format: cell-based, Pseudomonas aeruginosa; conditions: P. aeruginosa PAO1 (wild type)
From the text: as §2, §3

[3] = healthy volunteers; single dose up to 800 mg or multiple dose up to 600 mg every 8 hours for 14 consecutive days; cited from earlier work

In the case of CC(C)C[C@@H]1NC(=O)[C@@H](Cc2ccccc2)NC(=O)[C@H](CCN)NC(=O)[C@@H](NC(=O)[C@H](CCN)NC(=O)[C@@H](N)[C@@H](C)O)CCNC(=O)[C@H]([C@@H](C)O)NC(=O)[C@H](CCN)NC(=O)[C@H](CCN)NC1=O [PMBN, polymyxin B nonapeptide, reference compound] (H-T[Dab][Dab][Dab][dF]L[Dab][Dab]T; lactam 3-C (inferred)), the MIC (P. aeruginosa PAO750) is reported as 4 µg/mL (≈ 4.15 µM), the MIC (P. aeruginosa PAO200; P. aeruginosa PAO200, efflux-deficient strain that lacks the MexAB-OprM pump) is reported as 2 µg/mL (≈ 2.08 µM) and the “fold difference in MIC against wild-type PAO1 and efflux-deficient PAO200” value (P. aeruginosa PAO200; PAO1 versus PAO200 (lacks MexAB-OprM)) is reported as 64 fold. For the same molecule, the “MIC of adjuvant alone (MIC1, MIC2, MIC3, MIC4, MIC5, MICPMBN)” value (P. aeruginosa PAO1 [1]; adjuvant alone, one value per checkerboard, in µg/mL) was 128, the Interpretation (P. aeruginosa PAO1 [1]; combination with Aztreonam) was “Synergy (An FIC index of ≤0.5, 0.5<x≤4, or >4 denotes for synergistic, additive or antagonistic interaction, respectively)” and the Interpretation (P. aeruginosa PAO1 [1]; combination with Ceftazidime) was “Synergy (An FIC index of ≤0.5, 0.5<x≤4, or >4 denotes for synergistic, additive or antagonistic interaction, respectively)”. For the same molecule, the Interpretation (P. aeruginosa PAO1 [1]; combination with Chloramphenicol) was “Synergy (An FIC index of ≤0.5, 0.5<x≤4, or >4 denotes for synergistic, additive or antagonistic interaction, respectively)”, the Interpretation (P. aeruginosa PAO1 [1]; combination with Ciprofloxacin) was “Synergy (An FIC index of ≤0.5, 0.5<x≤4, or >4 denotes for synergistic, additive or antagonistic interaction, respectively)” and the Interpretation (P. aeruginosa PAO1 [1]; combination with Clindamycin) was “Synergy (An FIC index of ≤0.5, 0.5<x≤4, or >4 denotes for synergistic, additive or antagonistic interaction, respectively)”. The Interpretation (P. aeruginosa PAO1 [1]; combination with Doripenem) was “Synergy (An FIC index of ≤0.5, 0.5<x≤4, or >4 denotes for synergistic, additive or antagonistic interaction, respectively)”, the Interpretation (P. aeruginosa PAO1 [1]; combination with Doxycycline) was “Synergy (An FIC index of ≤0.5, 0.5<x≤4, or >4 denotes for synergistic, additive or antagonistic interaction, respectively)” and the Interpretation (P. aeruginosa PAO1 [1]; combination with Fosfomycin) was “Synergy (An FIC index of ≤0.5, 0.5<x≤4, or >4 denotes for synergistic, additive or antagonistic interaction, respectively)”. The Interpretation (P. aeruginosa PAO1 [1]; combination with Gentamicin) was “Additive (An FIC index of ≤0.5, 0.5<x≤4, or >4 denotes for synergistic, additive or antagonistic interaction, respectively)”, the Interpretation (P. aeruginosa PAO1 [1]; combination with Linezolid) was “Synergy (An FIC index of ≤0.5, 0.5<x≤4, or >4 denotes for synergistic, additive or antagonistic interaction, respectively)” and the Interpretation (P. aeruginosa PAO1 [1]; combination with Meropenem) was “Synergy (An FIC index of ≤0.5, 0.5<x≤4, or >4 denotes for synergistic, additive or antagonistic interaction, respectively)”. For the same molecule, the Interpretation (P. aeruginosa PAO1 [1]; combination with Minocycline) was “Synergy (An FIC index of ≤0.5, 0.5<x≤4, or >4 denotes for synergistic, additive or antagonistic interaction, respectively)”, the Interpretation (P. aeruginosa PAO1 [1]; combination with Moxifloxacin) was “Synergy (An FIC index of ≤0.5, 0.5<x≤4, or >4 denotes for synergistic, additive or antagonistic interaction, respectively)” and the Interpretation (P. aeruginosa PAO1 [1]; combination with Novobiocin) was “Synergy (An FIC index of ≤0.5, 0.5<x≤4, or >4 denotes for synergistic, additive or antagonistic interaction, respectively)”. The Interpretation (P. aeruginosa PAO1 [1]; combination with Piperacillin) was “Synergy (An FIC index of ≤0.5, 0.5<x≤4, or >4 denotes for synergistic, additive or antagonistic interaction, respectively)”, the Interpretation (P. aeruginosa PAO1 [1]; combination with Pleuromutilin) was “Synergy (An FIC index of ≤0.5, 0.5<x≤4, or >4 denotes for synergistic, additive or antagonistic interaction, respectively)” and the Interpretation (P. aeruginosa PAO1 [1]; combination with Rifampicin) was “Synergy (An FIC index of ≤0.5, 0.5<x≤4, or >4 denotes for synergistic, additive or antagonistic interaction, respectively)”. For the same molecule, the Interpretation (P. aeruginosa PAO1 [1]; combination with Streptomycin) was “Additive (An FIC index of ≤0.5, 0.5<x≤4, or >4 denotes for synergistic, additive or antagonistic interaction, respectively)”, the Interpretation (P. aeruginosa PAO1 [1]; combination with Tobramycin) was “Additive (An FIC index of ≤0.5, 0.5<x≤4, or >4 denotes for synergistic, additive or antagonistic interaction, respectively)” and the Interpretation (P. aeruginosa PAO1 [1]; combination with Trimethoprim) was “Synergy (An FIC index of ≤0.5, 0.5<x≤4, or >4 denotes for synergistic, additive or antagonistic interaction, respectively)”. For the same molecule, the Interpretation (P. aeruginosa PAO1 [1]; combination with Vancomycin) was “Synergy (An FIC index of ≤0.5, 0.5<x≤4, or >4 denotes for synergistic, additive or antagonistic interaction, respectively)”, the “MIC of adjuvant in combo” value (P. aeruginosa PAO1 [1]; in combination with Aztreonam) was “(4)” and the “MIC of adjuvant in combo” value (P. aeruginosa PAO1 [1]; in combination with Ceftazidime) was “(8)”. For the same molecule, the “MIC of adjuvant in combo” value (P. aeruginosa PAO1 [1]; in combination with Chloramphenicol) was “(1)”, the “MIC of adjuvant in combo” value (P. aeruginosa PAO1 [1]; in combination with Ciprofloxacin) was “(32)” and the “MIC of adjuvant in combo” value (P. aeruginosa PAO1 [1]; in combination with Clindamycin) was “(0.5)”. The “MIC of adjuvant in combo” value (P. aeruginosa PAO1 [1]; in combination with Doripenem) was “(8)”, the “MIC of adjuvant in combo” value (P. aeruginosa PAO1 [1]; in combination with Doxycycline) was “(4)” and the “MIC of adjuvant in combo” value (P. aeruginosa PAO1 [1]; in combination with Fosfomycin) was “(32)”. The “MIC of adjuvant in combo” value (P. aeruginosa PAO1 [1]; in combination with Gentamicin) was “(64)”, the “MIC of adjuvant in combo” value (P. aeruginosa PAO1 [1]; in combination with Linezolid) was “(4)” and the “MIC of adjuvant in combo” value (P. aeruginosa PAO1 [1]; in combination with Meropenem) was “(16)”. For the same molecule, the “MIC of adjuvant in combo” value (P. aeruginosa PAO1 [1]; in combination with Minocycline) was “(8)”, the “MIC of adjuvant in combo” value (P. aeruginosa PAO1 [1]; in combination with Moxifloxacin) was “(32)” and the “MIC of adjuvant in combo” value (P. aeruginosa PAO1 [1]; in combination with Novobiocin) was “(4)”. The “MIC of adjuvant in combo” value (P. aeruginosa PAO1 [1]; in combination with Piperacillin) was “(8)”, the “MIC of adjuvant in combo” value (P. aeruginosa PAO1 [1]; in combination with Pleuromutilin) was “(0.5)” and the “MIC of adjuvant in combo” value (P. aeruginosa PAO1 [1]; in combination with Rifampicin) was “(0.5)”. The “MIC of adjuvant in combo” value (P. aeruginosa PAO1 [1]; in combination with Streptomycin) was “(0.5)”, the “MIC of adjuvant in combo” value (P. aeruginosa PAO1 [1]; in combination with Tobramycin) was “(0.5)” and the “MIC of adjuvant in combo” value (P. aeruginosa PAO1 [1]; in combination with Trimethoprim) was “(4)”. The “MIC of adjuvant in combo” value (P. aeruginosa PAO1 [1]; in combination with Vancomycin) was “(1)”, the “adjuvant activity (potentiation of the panel of 21 antibiotics)” value (P. aeruginosa PAO1 [1]; result in words) was “potentiated all antibiotics tested except for those belonging to the aminoglycoside family” and the “% Hemolysis at 512 μg/mL of polymyxin” value (pig erythrocytes) was 1.1 ± 0.1%. It also gave an MIC (P. aeruginosa PAO1 [2]) of 128 µg/mL (≈ 133 µM).

In the case of CC(=O)N[C@H](C(=O)N[C@H](CO)C(=O)N[C@H]1CCNC(=O)[C@H]([C@@H](C)O)NC(=O)[C@H](CCN)NC(=O)[C@H](CCN)NC(=O)[C@H](CC(C)C)NC(=O)[C@@H](Cc2ccccc2)NC(=O)[C@H](CCN)NC1=O)[C@@H](C)O [SPR741] (Ac-T[dS][Dab][Dab][dF]L[Dab][Dab]T; lactam 3-C), the tolerability [3] is given as “well-tolerated”.

In the case of Gentamicin [reference compound], the MICDrug (P. aeruginosa PAO1 [1]; antibiotic alone) is reported as 2, the MICDrug in combo (P. aeruginosa PAO1 [1]; antibiotic in combination with 1) is reported as “(2)” and the MICDrug in combo (P. aeruginosa PAO1 [1]; antibiotic in combination with 2) is reported as “(4)”. For the same molecule, the MICDrug in combo (P. aeruginosa PAO1 [1]; antibiotic in combination with 3) was “(2)”, the MICDrug in combo (P. aeruginosa PAO1 [1]; antibiotic in combination with 4) was “(2)” and the MICDrug in combo (P. aeruginosa PAO1 [1]; antibiotic in combination with 5) was “(4)”. For the same molecule, the MICDrug in combo (P. aeruginosa PAO1 [1]; antibiotic in combination with PMBN) was “(2)”.

From patent US20210261621A1, “Preparation of Dilipid Polymixins and Use Thereof as Antimicrobial Adjuvants” (priority 2018, published 2021)
